The results in this text go back to ChEMBL document CHEMBL1155795, “Revisiting the sponge sources, stereostructure, and biological activity of cyclocinamide a” (J Nat Prod, 2008).

The structures appear in SMILES notation. Starred links: 1 amine or outer side, 2 acyl side, 3 side chain; linkers in the order of their positions; H or OH if unused. Positions of bridges follow the written chain, without caps; N, C: chain ends. Non-standard residues stand in square brackets, D forms with d. Residues, ends and D or L forms follow the SMILES beside them. *: point of attachment. Trp(5-Br) = N[C@@H](Cc1c[nH]c2ccc(Br)cc12)C(=O)O; isoSer(2S) = O=C([C@@H](O)CN[*:1])[*:2]; X1 = Cn1cc(Cl)cc1C(=O)*; Dap = NC[C@H](N)C(=O)O

Usually IC50 stands for the midpoint of a concentration-inhibition curve.

Experiment [1] can be described thus: Cytotoxicity against human […] cells assessed as zone of inhibition at 90 ug/disk by disk diffusion soft agar colony forming assay. It is filed as functional. As to conditions: read-out: IZ. On the technique in general: A growth-free zone around the sample is the usual read-out of agar diffusion tests.
Experiment [2] in a line: Cytotoxicity against mouse CFU-GM cells assessed as zone of inhibition at 90 ug/disk by disk diffusion soft agar colony forming assay. The experiment is classed as functional. To be noted: read-out: IZ.
A further experiment concerns HCT-116. Description: Cytotoxicity against human HCT116 cells. The experiment is classed as functional, cell-based.

As for `Cn1cc(Cl)cc1C(=O)NCC(=O)N[C@H]1CNC(=O)[C@H](Cc2c[nH]c3ccc(Br)cc23)NC(=O)[C@@H](O)CNC(=O)[C@H](CC(N)=O)NC1=O` (X1-G[Dap]N[isoSer(2S)][Trp(5-Br)]; lactam 2-C), the results for the zone of inhibition at 90 µg/disc in experiment [1] and in experiment [2] were 26 mm and 16 mm, respectively. In the experiment with HCT-116, the IC50 was over 10 µg/mL.
